How the values were obtained:
Assay in all cases: biochemical
Details in all cases: read-out: % inhibition mean (Z'Lyte)
ADRBK2 (GRK3) = ADRBK2 (GRK3) (Homo sapiens, UniProt P35626)
CHEK1 (CHK1) = CHEK1 (CHK1) (Homo sapiens, UniProt O14757)
MAPK9 (JNK2) = MAPK9 (JNK2) (Homo sapiens, UniProt P45984)
TBK1 = TBK1 (Homo sapiens, UniProt Q9UHD2)
DCAMKL2 (DCK2) = DCAMKL2 (DCK2) (Homo sapiens, UniProt Q8N568)
MST1R (RON) = MST1R (RON) (Homo sapiens, UniProt Q04912)
KDR (VEGFR2) = KDR (VEGFR2) (Homo sapiens, UniProt P35968)
SRC = SRC (Homo sapiens, UniProt P12931)
PHKG1 = PHKG1 (Homo sapiens, UniProt Q16816)
TYK2 = TYK2 (Homo sapiens, UniProt P29597)
ROS1 = ROS1 (Homo sapiens, UniProt P08922)
CDC42 BPA (MRCKA) = CDC42 BPA (MRCKA) (Homo sapiens, UniProt Q5VT25)
TXK = TXK (Homo sapiens, UniProt P42681)
ABL1 F317I = ABL1 F317I (Homo sapiens, UniProt P00519, F317I)
KSR2 = KSR2 (Homo sapiens, UniProt Q6VAB6)
Sequence of KSR2 (Q6VAB6 whole entry): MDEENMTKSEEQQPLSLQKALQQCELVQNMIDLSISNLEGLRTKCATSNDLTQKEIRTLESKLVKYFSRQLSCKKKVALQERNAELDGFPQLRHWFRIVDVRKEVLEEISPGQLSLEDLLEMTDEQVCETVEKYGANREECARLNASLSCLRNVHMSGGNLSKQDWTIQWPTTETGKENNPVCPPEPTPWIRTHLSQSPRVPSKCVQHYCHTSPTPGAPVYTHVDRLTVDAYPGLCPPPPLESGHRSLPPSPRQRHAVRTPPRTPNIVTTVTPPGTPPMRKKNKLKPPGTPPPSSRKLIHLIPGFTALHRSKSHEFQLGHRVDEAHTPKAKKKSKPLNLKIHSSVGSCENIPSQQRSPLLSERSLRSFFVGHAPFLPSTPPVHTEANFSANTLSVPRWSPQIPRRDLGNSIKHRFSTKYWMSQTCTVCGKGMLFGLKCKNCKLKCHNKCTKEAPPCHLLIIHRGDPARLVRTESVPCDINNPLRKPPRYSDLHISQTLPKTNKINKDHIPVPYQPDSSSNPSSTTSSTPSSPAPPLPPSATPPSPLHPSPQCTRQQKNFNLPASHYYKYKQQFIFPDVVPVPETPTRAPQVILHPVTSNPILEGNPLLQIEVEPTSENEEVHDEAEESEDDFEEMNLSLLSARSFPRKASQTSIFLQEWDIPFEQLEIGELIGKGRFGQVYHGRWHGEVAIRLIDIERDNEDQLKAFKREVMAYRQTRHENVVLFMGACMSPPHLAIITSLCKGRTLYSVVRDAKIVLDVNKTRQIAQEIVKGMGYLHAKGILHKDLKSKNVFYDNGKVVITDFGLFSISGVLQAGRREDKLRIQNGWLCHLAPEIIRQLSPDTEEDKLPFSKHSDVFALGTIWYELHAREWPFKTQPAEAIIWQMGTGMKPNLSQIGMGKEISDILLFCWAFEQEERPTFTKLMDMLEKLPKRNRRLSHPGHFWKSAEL

PRKCA (PKC alpha) = PRKCA (PKC alpha) (Homo sapiens, UniProt P17252)
PRKCG (PKC gamma) = PRKCG (PKC gamma) (Homo sapiens, UniProt P05129)
EGFR (ErbB1) G719S = EGFR (ErbB1) G719S (Homo sapiens, UniProt P00533, G719S)
Sequence of EGFR (ErbB1) G719S (P00533 whole entry G719S): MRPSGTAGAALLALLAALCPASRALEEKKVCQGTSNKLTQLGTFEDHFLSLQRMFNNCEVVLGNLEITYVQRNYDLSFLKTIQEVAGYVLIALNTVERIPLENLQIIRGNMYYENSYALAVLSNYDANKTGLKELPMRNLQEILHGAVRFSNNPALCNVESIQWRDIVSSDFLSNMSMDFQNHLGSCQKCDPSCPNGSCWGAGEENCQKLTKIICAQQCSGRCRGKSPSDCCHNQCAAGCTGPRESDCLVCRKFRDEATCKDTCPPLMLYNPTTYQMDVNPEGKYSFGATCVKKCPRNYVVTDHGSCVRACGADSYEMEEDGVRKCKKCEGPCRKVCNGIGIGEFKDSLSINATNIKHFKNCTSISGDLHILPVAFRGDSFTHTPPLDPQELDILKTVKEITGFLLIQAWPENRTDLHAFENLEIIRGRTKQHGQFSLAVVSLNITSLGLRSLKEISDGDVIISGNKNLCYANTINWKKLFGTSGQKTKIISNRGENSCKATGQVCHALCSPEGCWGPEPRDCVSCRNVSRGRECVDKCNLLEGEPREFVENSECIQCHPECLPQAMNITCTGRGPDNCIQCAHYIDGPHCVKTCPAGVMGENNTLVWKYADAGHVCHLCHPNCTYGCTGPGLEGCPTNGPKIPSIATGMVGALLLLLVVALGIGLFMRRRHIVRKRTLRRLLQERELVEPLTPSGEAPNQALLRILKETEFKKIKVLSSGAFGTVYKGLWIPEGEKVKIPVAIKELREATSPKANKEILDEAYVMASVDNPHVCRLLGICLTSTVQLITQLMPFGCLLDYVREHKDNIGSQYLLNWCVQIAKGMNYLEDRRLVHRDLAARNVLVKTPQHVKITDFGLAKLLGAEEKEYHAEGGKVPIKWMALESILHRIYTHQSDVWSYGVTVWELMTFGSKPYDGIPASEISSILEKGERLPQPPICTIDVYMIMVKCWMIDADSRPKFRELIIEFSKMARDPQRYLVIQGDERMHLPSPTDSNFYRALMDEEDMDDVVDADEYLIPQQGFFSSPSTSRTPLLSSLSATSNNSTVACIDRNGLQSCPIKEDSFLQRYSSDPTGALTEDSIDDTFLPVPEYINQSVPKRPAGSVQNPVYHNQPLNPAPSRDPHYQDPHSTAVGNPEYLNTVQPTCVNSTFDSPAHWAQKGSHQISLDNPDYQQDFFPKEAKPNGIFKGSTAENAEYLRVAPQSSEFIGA

CSNK1A1L = CSNK1A1L (Homo sapiens, UniProt Q8N752)
CSNK1G3 (CK1 gamma 3) = CSNK1G3 (CK1 gamma 3) (Homo sapiens, UniProt Q9Y6M4)
NIM1K = NIM1K (Homo sapiens, UniProt Q8IY84)
Sequence of NIM1K (Q8IY84 whole entry): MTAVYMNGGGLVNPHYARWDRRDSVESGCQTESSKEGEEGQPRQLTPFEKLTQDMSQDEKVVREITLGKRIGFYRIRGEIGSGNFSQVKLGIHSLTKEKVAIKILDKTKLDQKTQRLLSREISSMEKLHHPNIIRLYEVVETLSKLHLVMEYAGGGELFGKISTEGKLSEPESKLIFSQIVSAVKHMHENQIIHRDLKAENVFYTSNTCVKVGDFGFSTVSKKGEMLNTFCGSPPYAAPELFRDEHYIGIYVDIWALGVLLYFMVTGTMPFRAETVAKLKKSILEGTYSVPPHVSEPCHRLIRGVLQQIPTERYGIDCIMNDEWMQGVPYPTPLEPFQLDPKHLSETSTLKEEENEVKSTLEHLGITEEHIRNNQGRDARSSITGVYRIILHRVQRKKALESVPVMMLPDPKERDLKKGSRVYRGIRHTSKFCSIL

EGFR (ErbB1) T790M = EGFR (ErbB1) T790M (Homo sapiens, UniProt P00533, T790M)
Sequence of EGFR (ErbB1) T790M (P00533 whole entry T790M): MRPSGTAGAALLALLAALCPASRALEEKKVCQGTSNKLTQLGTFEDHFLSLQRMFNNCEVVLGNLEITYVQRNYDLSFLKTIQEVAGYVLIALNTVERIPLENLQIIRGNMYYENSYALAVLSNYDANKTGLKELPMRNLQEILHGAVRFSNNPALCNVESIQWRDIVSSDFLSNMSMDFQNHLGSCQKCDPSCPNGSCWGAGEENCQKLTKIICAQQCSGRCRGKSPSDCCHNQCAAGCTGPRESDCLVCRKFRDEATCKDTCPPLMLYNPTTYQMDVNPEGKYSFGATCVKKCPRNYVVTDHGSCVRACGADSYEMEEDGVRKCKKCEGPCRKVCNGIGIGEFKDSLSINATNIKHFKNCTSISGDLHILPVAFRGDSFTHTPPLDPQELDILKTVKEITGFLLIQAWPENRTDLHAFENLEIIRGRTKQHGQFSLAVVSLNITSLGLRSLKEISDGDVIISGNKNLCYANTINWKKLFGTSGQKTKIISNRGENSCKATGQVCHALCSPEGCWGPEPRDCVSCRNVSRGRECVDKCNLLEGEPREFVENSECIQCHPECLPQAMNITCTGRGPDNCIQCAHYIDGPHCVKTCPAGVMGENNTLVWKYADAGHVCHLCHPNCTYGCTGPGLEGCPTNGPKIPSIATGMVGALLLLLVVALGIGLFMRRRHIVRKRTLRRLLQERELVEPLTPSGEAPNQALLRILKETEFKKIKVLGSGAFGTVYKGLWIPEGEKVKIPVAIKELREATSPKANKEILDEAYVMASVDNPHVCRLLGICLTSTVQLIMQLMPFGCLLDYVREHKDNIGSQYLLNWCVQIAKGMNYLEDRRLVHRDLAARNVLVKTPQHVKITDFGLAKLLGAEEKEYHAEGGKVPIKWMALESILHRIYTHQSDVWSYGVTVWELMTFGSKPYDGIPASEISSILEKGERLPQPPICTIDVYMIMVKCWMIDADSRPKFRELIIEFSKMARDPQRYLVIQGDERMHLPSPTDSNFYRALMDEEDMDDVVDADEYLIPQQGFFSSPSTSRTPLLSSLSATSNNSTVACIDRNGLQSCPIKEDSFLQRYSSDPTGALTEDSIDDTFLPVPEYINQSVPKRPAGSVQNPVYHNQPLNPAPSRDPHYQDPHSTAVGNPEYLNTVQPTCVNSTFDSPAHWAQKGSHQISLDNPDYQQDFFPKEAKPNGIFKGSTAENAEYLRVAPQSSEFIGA

RPS6KA2 (RSK3) = RPS6KA2 (RSK3) (Homo sapiens, UniProt Q15349)
Sequence of RPS6KA2 (RSK3) (Q15349 whole entry): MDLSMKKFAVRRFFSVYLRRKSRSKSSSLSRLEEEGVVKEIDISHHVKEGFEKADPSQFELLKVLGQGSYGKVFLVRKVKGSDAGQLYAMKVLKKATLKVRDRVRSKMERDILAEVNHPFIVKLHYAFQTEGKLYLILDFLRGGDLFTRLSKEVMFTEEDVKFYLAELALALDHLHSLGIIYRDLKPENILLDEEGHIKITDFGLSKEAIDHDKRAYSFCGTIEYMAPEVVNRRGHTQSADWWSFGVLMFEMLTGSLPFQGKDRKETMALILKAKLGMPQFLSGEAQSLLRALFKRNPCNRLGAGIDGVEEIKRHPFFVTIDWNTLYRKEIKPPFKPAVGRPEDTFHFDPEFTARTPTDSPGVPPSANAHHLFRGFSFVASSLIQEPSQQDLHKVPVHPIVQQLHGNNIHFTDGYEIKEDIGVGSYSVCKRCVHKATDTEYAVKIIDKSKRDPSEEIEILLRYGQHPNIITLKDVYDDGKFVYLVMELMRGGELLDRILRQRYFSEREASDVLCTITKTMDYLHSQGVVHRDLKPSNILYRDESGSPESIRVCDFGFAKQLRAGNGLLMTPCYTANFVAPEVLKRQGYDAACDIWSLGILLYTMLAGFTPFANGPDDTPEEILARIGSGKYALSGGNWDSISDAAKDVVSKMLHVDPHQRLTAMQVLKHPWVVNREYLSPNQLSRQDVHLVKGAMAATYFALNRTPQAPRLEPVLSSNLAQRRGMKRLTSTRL

PRKCI (PKC iota) = PRKCI (PKC iota) (Homo sapiens, UniProt P41743)
PRKX = PRKX (Homo sapiens, UniProt P51817)
CDKL5 = CDKL5 (Homo sapiens, UniProt O76039)
PDGFRA (PDGFR alpha) = PDGFRA (PDGFR alpha) (Homo sapiens, UniProt P16234)
EPHA8 = EPHA8 (Homo sapiens, UniProt P29322)

Sequence of MAPK9 (JNK2) (P45984 whole entry): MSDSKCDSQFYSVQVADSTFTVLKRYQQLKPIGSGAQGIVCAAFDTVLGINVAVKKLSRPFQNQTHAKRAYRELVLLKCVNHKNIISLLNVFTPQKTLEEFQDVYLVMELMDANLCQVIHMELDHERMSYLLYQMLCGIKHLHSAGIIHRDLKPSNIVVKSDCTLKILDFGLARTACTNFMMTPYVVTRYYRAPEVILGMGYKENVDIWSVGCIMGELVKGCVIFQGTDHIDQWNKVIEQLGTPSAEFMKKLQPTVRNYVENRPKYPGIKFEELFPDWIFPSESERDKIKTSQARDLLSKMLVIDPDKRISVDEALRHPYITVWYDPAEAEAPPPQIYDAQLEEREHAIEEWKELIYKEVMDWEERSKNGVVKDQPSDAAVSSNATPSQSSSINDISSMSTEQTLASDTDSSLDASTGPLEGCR

Question: For `COc1ccc2nc3cc(Cl)ccc3c(Nc3cc(CN4CCCC4)c(O)c(CN4CCCC4)c3)c2n1` [Pyronaridine, 4-[(7-Chloro-2-methoxybenzo[b][1,5]naphthyridin-10-yl)amino]-2,6-bis(1-pyrrolidinylmethyl)phenol phosphate (1:4)], which inhibition at 1 µM (ADRBK2 (GRK3)) is on record?
Answer: The inhibition at 1 µM was -5%.

Question: And the inhibition at 1 µM (CHEK1 (CHK1))?
Answer: Its inhibition at 1 µM is 8%.

Question: And the inhibition at 1 µM (MAPK9 (JNK2))?
Answer: Its inhibition at 1 µM is -15%.

Question: What about the inhibition at 1 µM (TBK1) of the same molecule?
Answer: The inhibition at 1 µM was 4%.

Question: And the inhibition at 1 µM (DCAMKL2 (DCK2))?
Answer: Its inhibition at 1 µM is -1%.

Question: What about the inhibition at 1 µM (MST1R (RON)) of the same molecule?
Answer: Its inhibition at 1 µM is 2%.

Question: What about the inhibition at 1 µM (KDR (VEGFR2)) of the same molecule?
Answer: Its inhibition at 1 µM is 7%.

Question: And the inhibition at 1 µM (SRC)?
Answer: Its inhibition at 1 µM is 14%.

Question: And the inhibition at 1 µM (PHKG1)?
Answer: The inhibition at 1 µM was -1%.

Question: And the inhibition at 1 µM (TYK2)?
Answer: Its inhibition at 1 µM is 0%.

Question: What about the inhibition at 1 µM (ROS1) of the same molecule?
Answer: The inhibition at 1 µM was -6%.

Question: And the inhibition at 1 µM (CDC42 BPA (MRCKA))?
Answer: The inhibition at 1 µM was 2%.

Question: What about the inhibition at 1 µM (TXK) of the same molecule?
Answer: Its inhibition at 1 µM is 4%.

Question: And the inhibition at 1 µM (ABL1 F317I)?
Answer: Its inhibition at 1 µM is 0%.

Question: And the inhibition at 1 µM (KSR2)?
Answer: The inhibition at 1 µM was 2%.

Question: What about the inhibition at 1 µM (PRKCA (PKC alpha)) of the same molecule?
Answer: The inhibition at 1 µM was 13%.

Question: What about the inhibition at 1 µM (PRKCG (PKC gamma)) of the same molecule?
Answer: The inhibition at 1 µM was -4%.

Question: What about the inhibition at 1 µM (EGFR (ErbB1) G719S) of the same molecule?
Answer: The inhibition at 1 µM was -5%.

Question: What about the inhibition at 1 µM (CSNK1A1L) of the same molecule?
Answer: Its inhibition at 1 µM is 3%.

Question: What about the inhibition at 1 µM (CSNK1G3 (CK1 gamma 3)) of the same molecule?
Answer: Its inhibition at 1 µM is 2%.

Question: And the inhibition at 1 µM (NIM1K)?
Answer: The inhibition at 1 µM was -2%.

Question: What about the inhibition at 1 µM (EGFR (ErbB1) T790M) of the same molecule?
Answer: Its inhibition at 1 µM is 2%.

Question: What about the inhibition at 1 µM (RPS6KA2 (RSK3)) of the same molecule?
Answer: Its inhibition at 1 µM is 0%.

Question: What about the inhibition at 1 µM (PRKCI (PKC iota)) of the same molecule?
Answer: Its inhibition at 1 µM is -10%.

Question: What about the inhibition at 1 µM (PRKX) of the same molecule?
Answer: Its inhibition at 1 µM is 5%.

Question: And the inhibition at 1 µM (CDKL5)?
Answer: Its inhibition at 1 µM is 4%.

Question: And the inhibition at 1 µM (PDGFRA (PDGFR alpha))?
Answer: The inhibition at 1 µM was 2%.

Question: And the inhibition at 1 µM (EPHA8)?
Answer: Its inhibition at 1 µM is 1%.

Source: paper doi:10.1101/2021.09.30.462449v1 (biorxiv, 2021)
